The text below walks through data of publication PMC6028098, “The N-terminal region of photocleavable peptides that bind HLA-DR1 determines the kinetics of fragment release” (PLoS ONE, 2018).

Like-named read-outs stand apart in the source and are kept apart here. Ends that are not written are not given here. Peptide text beside a SMILES is read from it.

The target of data set [1] is HLA-DR1 (DRA*01:01/DRB1*01:01) extracellular domain (human). Description: fluorescence polarisation.
In data set [2] the target is T1, HLA-DR1 (DRA*01:01/DRB1*01:01) (Homo sapiens, UniProt P01903+P01911, A100R/D57E/F55L/F60I/F76Y/I96L/L162R/M171V/P40L/Q125E/R42F/V115G/Y59C).
T1 construct: HLA-DR1 (DRA*01:01/DRB1*01:01) extracellular domain was expressed in Drosophila S2 cells; made in house
The experiment in a line: biochemical. Particulars: for inhibition at 0.256 µM / inhibition at 1.28 µM / inhibition at 6.4 µM / inhibition at 32 µM / inhibition at 160 µM / inhibition at 0.000256 µM / inhibition at 0.00128 µM / inhibition at 0.0064 µM / inhibition at 0.032 µM / inhibition at 0.16 µM / inhibition at 0.8 µM / inhibition at 4 µM / inhibition at 20 µM: read-out: fraction of labeled HA binding inhibited. It is filed as binding.

The conditions of data set [3]: complex with DR2b, 2 minutes of UV exposure; cited from earlier work. An excerpt:
In the only previous report in which a photocleavable peptide was used with a MHC-II protein, the complex studied was DR2b (HLA-DRB1*15:01) with a peptide derived from human myelin basic protein (MBP85-99) with the photocleavable group replacing the residue at P4 position (ENPVVHFXKNIVTPR). […] Thus in this case the peptide is cleaved efficiently and the ...

The next data set has as its target DR1 (Homo sapiens, UniProt P01903+P01911, A100R/D57E/F55L/F60I/F76Y/I96L/L162R/M171V/P40L/Q125E/R42F/V115G/Y59C). Particulars: binding to DR1, estimated; cited from earlier work.

Regarding “V1MxN photocleavable peptide (Ac-HVQMxNALAL)”, the half-inhibitory concentration (IC50) – broadly, the concentration that inhibits the measured activity by half – in data set [1] stood at 5400 nM.
On to `CC(=O)N1CCC[C@H]1C(=O)N[C@@H](CCCNC(=N)N)C(=O)N[C@@H](Cc1ccc(O)cc1)C(=O)N[C@H](C(=O)N[C@@H](CCCCN)C(=O)NC(CC(=O)N[C@@H](CC(N)=O)C(=O)N[C@H](C(=O)N[C@@H](CC(C)C)C(=O)N[C@@H](CCCNC(=N)N)C(=O)N[C@@H](CC(C)C)C(=O)N[C@@H](C)C(=O)N[C@H](C(=O)O)[C@@H](C)O)[C@@H](C)O)c1ccccc1[N+](=O)[O-])C(C)C` (some centres unmarked) [Ac-photoHA], for which, in data set [2] (72 h), the inhibition at 0.256 µM was -1.71%, the inhibition at 1.28 µM is -3.02%, the inhibition at 6.4 µM was -0.583% and the inhibition at 32 µM was determined as 10%. For the same molecule, the inhibition at 160 µM in data set [2] (72 h) came to 59%. In addition, in data set [2] (competition with 25 nM Alexa488-labeled HA for DR1 (100 nM per method, 150 nM per Fig 7/8 legends), 37°C, 72 h, fluorescence polarization, mean ± SD of two experiments, SD, read-out: IC50), the 50% inhibitory concentration (IC50) turned out to be 134 ± 2 nM.
For the molecule `CSCC[C@H](NC(=O)[C@H](CCC(N)=O)NC(=O)[C@@H](NC(=O)[C@H](Cc1c[nH]cn1)NC(C)=O)C(C)C)C(=O)NC(CC(=O)N[C@@H](CC(N)=O)C(=O)N[C@@H](C)C(=O)N[C@@H](CC(C)C)C(=O)N[C@@H](C)C(=O)N[C@@H](CC(C)C)C(=O)O)c1ccccc1[N+](=O)[O-]` (some centres unmarked) [Peptide V1MxN] (HELM PEPTIDE1{[ac].H.V.Q.M.[O=C(CC(N[*:1])c1ccccc1[N+](=O)[O-])[*:2]].N.A.L.A.L}$$$$V2.0), in data set [2] (72 h), the inhibition at 0.000256 µM is -0.0001%, the inhibition at 0.00128 µM was 3%, the inhibition at 0.0064 µM stood at 5.87% and the inhibition at 0.032 µM turned out to be 4.84%. Also, in data set [2] (72 h), the inhibition at 0.16 µM was 1.29%, the inhibition at 0.8 µM turned out to be 10.9%, the inhibition at 4 µM amounted to 34.5% and the inhibition at 20 µM is 92.8%. Moreover, in data set [2] (SD), the IC50 is 5400 ± 341 nM.
Regarding `CSCC[C@H](NC(=O)[C@H](CCC(N)=O)NC(=O)[C@H](Cc1ccc(O)cc1)NC(C)=O)C(=O)NC(CC(=O)N[C@@H](CC(N)=O)C(=O)N[C@@H](C)C(=O)N[C@@H](CC(C)C)C(=O)N[C@@H](C)C(=O)N[C@@H](CC(C)C)C(=O)O)c1ccccc1[N+](=O)[O-]` (some centres unmarked) [Peptide Y1MxN] (HELM PEPTIDE1{[ac].Y.Q.M.[O=C(CC(N[*:1])c1ccccc1[N+](=O)[O-])[*:2]].N.A.L.A.L}$$$$V2.0), the inhibition at 0.000256 µM in data set [2] (72 h, Fig 2, [Pep] 0.000256 uM, 100 nM DR1, 25 nM Alexa488-labeled HA, 3 days, FP, mean of two experiments in triplicate) was -1.47%. Also, the inhibition at 0.00128 µM in data set [2] (72 h, Fig 2, [Pep] 0.00128 uM, 100 nM DR1, 25 nM Alexa488-labeled HA, 3 days, FP, mean of two experiments in triplicate) came to 4.96%. Also, the inhibition at 0.0064 µM in data set [2] (72 h, Fig 2, [Pep] 0.0064 uM, 100 nM DR1, 25 nM Alexa488-labeled HA, 3 days, FP, mean of two experiments in triplicate) is -1.42%. Further, the inhibition at 0.032 µM in data set [2] (72 h, Fig 2, [Pep] 0.032 uM, 100 nM DR1, 25 nM Alexa488-labeled HA, 3 days, FP, mean of two experiments in triplicate) is 13.4%. The inhibition at 0.16 µM in data set [2] (72 h, Fig 2, [Pep] 0.16 uM, 100 nM DR1, 25 nM Alexa488-labeled HA, 3 days, FP, mean, n = 3) is 39.7%. For the same molecule, the inhibition at 0.8 µM in data set [2] (72 h, Fig 2, [Pep] 0.8 uM, 100 nM DR1, 25 nM Alexa488-labeled HA, 3 days, FP, mean of two experiments in triplicate) stood at 69.7%. In addition, the inhibition at 4 µM in data set [2] (72 h, Fig 2, [Pep] 4 uM, 100 nM DR1, 25 nM Alexa488-labeled HA, 3 days, FP, mean of two experiments in triplicate) is 90%. Besides, the inhibition at 20 µM in data set [2] (72 h, Fig 2, [Pep] 20 uM, 100 nM DR1, 25 nM Alexa488-labeled HA, 3 days, FP, mean of two experiments in triplicate) came to 96.1%.
In the case of `CC(C)C[C@H](NC(=O)[C@H](CCCNC(=N)N)NC(=O)[C@H](CC(C)C)NC(=O)[C@@H](NC(=O)[C@H](CC(N)=O)NC(=O)CC(NC(=O)[C@H](CCCCN)NC(=O)[C@@H](NC(=O)[C@@H](N)Cc1ccc(O)cc1)C(C)C)c1ccccc1[N+](=O)[O-])[C@@H](C)O)C(=O)N[C@@H](C)C(=O)N[C@H](C(=O)O)[C@@H](C)O` (some centres unmarked) [photoHA-Δ1–2], in data set [2] (72 h), the inhibition at 0.256 µM is -1.94%, the inhibition at 1.28 µM is -1.83%, the inhibition at 6.4 µM was -1.22% and the inhibition at 32 µM was -0.549%. Moreover, the inhibition at 160 µM in data set [2] (72 h) is 9.88%.
On to `CC(=O)N[C@@H](Cc1ccc(O)cc1)C(=O)N[C@H](C(=O)N[C@@H](CCCCN)C(=O)NC(CC(=O)N[C@@H](CC(N)=O)C(=O)N[C@H](C(=O)N[C@@H](CC(C)C)C(=O)N[C@@H](CCCNC(=N)N)C(=O)N[C@@H](CC(C)C)C(=O)N[C@@H](C)C(=O)N[C@H](C(=O)O)[C@@H](C)O)[C@@H](C)O)c1ccccc1[N+](=O)[O-])C(C)C` (some centres unmarked) [Ac-photoHA-Δ1–2], for which, in data set [2] (72 h), the inhibition at 0.256 µM was -1.47%, the inhibition at 1.28 µM was -1.61%, the inhibition at 6.4 µM is -1.21% and the inhibition at 32 µM turned out to be 3.82%. Moreover, the inhibition at 160 µM in data set [2] (72 h) amounted to 39.8%.
The molecule “Y1MxN photocleavable peptide (Ac-YQMxNALAL)” displayed an IC50 in data set [1] of 323 nM.
For `CSCC[C@H](NC(=O)[C@H](CCC(N)=O)NC(=O)[C@H](CC(C)C)NC(=O)[C@H](Cc1c[nH]cn1)NC(C)=O)C(=O)NC(CC(=O)N[C@@H](CC(N)=O)C(=O)N[C@@H](C)C(=O)N[C@@H](CC(C)C)C(=O)N[C@@H](C)C(=O)N[C@@H](CC(C)C)C(=O)O)c1ccccc1[N+](=O)[O-]` (some centres unmarked) [Peptide L1MxN] (HELM PEPTIDE1{[ac].H.L.Q.M.[O=C(CC(N[*:1])c1ccccc1[N+](=O)[O-])[*:2]].N.A.L.A.L}$$$$V2.0), in data set [2] (72 h), the inhibition at 0.000256 µM was -0.215%, the inhibition at 0.00128 µM is -0.407%, the inhibition at 0.0064 µM was -1.67% and the inhibition at 0.032 µM was -1.44%. Further, in data set [2] (72 h), the inhibition at 0.16 µM was determined as 2.63%, the inhibition at 0.8 µM was found to be 13%, the inhibition at 4 µM was 49.4% and the inhibition at 20 µM is 86.9%. Moreover, half-maximal inhibition in data set [2] (SD) (IC50) required 4100 ± 298 nM.
Regarding “L1MxN photocleavable peptide (Ac-HLQMxNALAL)”, the concentration for half-maximal inhibition (IC50) in data set [1] worked out at 4100 nM.
With ENPVVHFXKNIVTPR, the “parent peptide after UV exposure” value in data set [3] was “almost undetectable”.
As for “HA306-318: immunodominant viral epitope from influenza virus hemagglutinin (Ac-PRYVKQNTLRLAT; not fully specified (residue 5); also: label on K5, type not given here)”, the dissociation constant Kd – broadly, the free concentration of one partner at which half of the binding sites on the other are occupied at equilibrium, for simple one-to-one binding – in the data set with DR1 was 13 nM.
For “Ac-PRYVKQNTLRLAT [HA, reference compound]”, in data set [2] (72 h), the inhibition at 0.0064 µM worked out at 7.96%, the inhibition at 0.032 µM was determined as 48.7%, the inhibition at 0.16 µM came out at 70.6% and the inhibition at 0.256 µM is -1.7%. In addition, in data set [2] (72 h), the inhibition at 0.8 µM was 95%, the inhibition at 1.28 µM is -1.55%, the inhibition at 4 µM stood at 99% and the inhibition at 6.4 µM is -0.259%. Further, in data set [2] (72 h), the inhibition at 20 µM was 104%, the inhibition at 32 µM worked out at 29.5% and the inhibition at 160 µM is 76.5%. The IC50 in data set [2] (competition with 25 nM Alexa488-labeled HA for DR1 (100 nM per method, 150 nM per Fig 7/8 legends), 37°C, 72 h, fluorescence polarization, mean ± SD of two experiments, read-out: IC50) turned out to be 40 nM.
In the case of `CC(C)C[C@H](NC(=O)[C@H](CCCNC(=N)N)NC(=O)[C@H](CC(C)C)NC(=O)[C@@H](NC(=O)[C@H](CC(N)=O)NC(=O)CC(NC(=O)[C@H](CCCCN)NC(=O)[C@@H](NC(=O)[C@H](Cc1ccc(O)cc1)NC(=O)[C@H](CCCNC(=N)N)NC(=O)[C@@H]1CCCN1)C(C)C)c1ccccc1[N+](=O)[O-])[C@@H](C)O)C(=O)N[C@@H](C)C(=O)N[C@H](C(=O)O)[C@@H](C)O` (some centres unmarked) [photoHA], in data set [2] (72 h), the inhibition at 0.256 µM was -1.65%, the inhibition at 1.28 µM was -2.9%, the inhibition at 6.4 µM was -1.3% and the inhibition at 32 µM stood at 22.2%. Besides, the inhibition at 160 µM in data set [2] (72 h) worked out at 66.3%. For the same molecule, the IC50 in data set [2] (SD) stood at 92 ± 2 nM.
